Experimental data: US11426403B2 (ST IP Holding AG, priority 2016, dated 2022)
pIC50: −log10 of the molar value. Like-named read-outs stand apart in the source and are kept apart here.

How the values were obtained:
[1] = system: oral mucositis induced by acute radiation, left buccal cheek pouch
Description: Twenty-four (24) male Syrian Golden Hamsters were used in the study. Mucositis was induced by giving an acute radiation dose of 40 Gy directed to the left buccal cheek pouch on Day 0. Mucositis was evaluated clinically starting on Day 6, and continuing on alternate days until Day 28.
Mucositis was scored visually by comparison to a validated photographic scale, ranging from 0 for normal, to 5 for severe ulceration (clinical scoring). In descriptive terms, this scale is defined as described in Table 7 below: […]
A mucositis score of 3 or greater indicates ulcerative mucositis, a clinically significant threshold.
Statistical significance of observed differences was calculated using chi-squared analysis.
An analysis of the severity of mucositis was performed using the Mann-Whitney rank sum analysis to compare the visual mucositis scores for Groups 2 and 3 to the vehicle control group (Group 1) on each day of the analysis. In this analysis, 2 consecutive days of significant reduction in the mucositis score are generally required before it is regarded as clinically meaningful.
The significance of group differences observed in daily mucositis scores was determined using the Mann-Whitney rank sum test. This nonparametric statistic is appropriate for the visual mucositis scoring scale. The p-values for each calculation are shown. “x” denotes significant difference in mucositis scores. “y” denotes increase in comparison to vehicle Group […], “z” denotes decrease.
“y” denotes an increase in comparison to vehicle Group, “z” denotes decrease (improvement).

[2] = hamster, Days -3 to 28, topical 1 mg/dose BID
[3] = system: primary human gingival epithelial cells (HGEPp); settings: pretreated 24 h at 50 to 800 ug/ml, then 0.3 mM H2O2 for 4 h; P<0.05 versus PC
Description: (§1) Pooled primary HGEPps were propagated in CnT-Prime epithelial culture medium provided by CellnTec on 100 mm petri dishes coated with 30 mg/ml Type I rat tail collagen (BD Biosciences) diluted in Dulbecco's phosphate-buffered saline (DPBS). […] The cells were harvested when they reached 70-90% confluency as observed by light microscopy. For routine cultivation, the medium was changed every 3 days. For both the cell viability and ROS assays, the cells from passages 3-7 were seeded at 5×10 3, 2.5×10 4, 5×10^4 cells/cm 2 density to grow cell monolayers in 24-well flat-bottomed tissue culture plates and acclimated overnight at 37° C. […]
(§2) Once the HGEPp cells were cultured and ready on the microplate, the media was removed from all the wells and discarded. […] Removed the plate cover and measured the absorbance of the wells, including the blanks at 570 nm. • 8. Determined the average values from triplicate readings after subtracting the average value for the blanks.
(§3) HGEPp cells were exposed to different concentrations of H2O2 for 4 h to examine H2O2-induced oxidative stress. The cells were exposed to 0-0.6 mM H2O2 for 4 h and cell viability was evaluated using the TACS MTT Cell Proliferation Assay Kit. The percentage of cell survival was determined using the ratio of the optical density (OD) of the test sample to the OD of the control×100%. […]

[4] = system: reactive oxygen species within HGEPp cells; settings: 0.3 mM H2O2 for 4 h
Description: 2. measure the effect of recrystallized oltipraz and formulated oltipraz on hydroxyl, peroxyl and other reactive oxygen species within HGEPp cells, using Cell Biolabs' OxiSelect™ Intracellular ROS Assay Kit. This assay employs the cell-permeable fluorogenic probe 2′,7′-dichlorodihydrofluorescin diacetate (DCFH-DA) which diffuses into cells and is deacetylated by cellular esterases to a nonfluorescent DCFH which is then rapidly oxidized to highly fluorescent 2′,7′-dichlorodihydrofluorescein (DCF) by ROS.
Pooled primary HGEPps were propagated in CnT-Prime epithelial culture medium provided by CellnTec on 100 mm petri dishes coated with 30 mg/ml Type I rat tail collagen (BD Biosciences) diluted in Dulbecco's phosphate-buffered saline (DPBS). […] The cells were harvested when they reached 70-90% confluency as observed by light microscopy. For routine cultivation, the medium was changed every 3 days. […]
Prepared and mixed all reagents thoroughly before use. […] Once the HGEPp cells were cultured and ready on a microplate, the media was removed from all the wells and discarded. […] Fluorescence was read on a Fluorescence Plate Reader after 1 hour. […] Transferred 150 μL of the mixture to a fresh 24-well plate for fluorescence measurements at 530 nm. […]
Intracellular ROS was measured using a Spectramax M3 microplate reader.

[5] = system: primary human gingival epithelial cells (HGEPp); test: cells; settings: Epithelial cell, 4 h, read-out: IC50 of H2O2 in HGEPp cells
Description: as §1, §2, §3

With `Cc1c(-c2cnccn2)ssc1=S` [Neat oltipraz, 4-methyl-5-(pyrazin-2-yl)-3H-1,2-dithiole-3-thione] the “Percent of Animals with Ulceration (Score ≥ 3)” value (shortened to “Percent of Animals”) ([1]; Day 6) was 0.0%, the “Percent of Animals” value ([1]; Day 8) was 0.0% and the “Percent of Animals” value ([1]; Day 10) was 0.0 z Percent. The “Percent of Animals” value ([1]; Day 12) was 50.0 y Percent, the “Percent of Animals” value ([1]; Day 14) was 100.0% and the “Percent of Animals” value ([1]; Day 16) was 100.0%. For the same molecule, the “Percent of Animals” value ([1]; Day 18) was 100.0%, the “Percent of Animals” value ([1]; Day 20) was 100.0% and the “Percent of Animals” value ([1]; Day 22) was 100.0%. For the same molecule, the “Percent of Animals” value ([1]; Day 24) was 50.0 z Percent, the “Percent of Animals” value ([1]; Day 26) was 25.0 z Percent and the “Percent of Animals” value ([1]; Day 28) was 25.0 z Percent. The “mean daily percent body weight change (rate of weight gain)” value [2] was “gained weight at a slower rate than those administered placebo” and the “effect on H2O2-induced decrease in HGEPp survival (MTT)” value [3] was “promoted cell proliferation and reduced H2O2-induced decrease in HGEPp survival”.
With `OO` [Sample H2O2, hydrogen peroxide] the “ROS levels compared to normal control cells (100%)” value [4] was 128% and the pIC50 [5] was 3.52.
